Values quoted from earlier work, collected in patent publication US7317103B2, “Imaging agents for diagnosis of Parkinson's disease” (Molecular Insight Pharmaceuticals, Inc., priority 2000, dated 2008).

Details: Tc-99m labeled tropane analog, Kung et al

CN1[C@H]2CC[C@@H]1[C@@H](CN(CC[S-])CC[N-]CC[S-])[C@@H](c1ccc(Cl)cc1)C2.[O]=[99Tc+4] [TRODAT]
absolute brain uptake: very low
